Source: US20240246946A1, “MODULATORS OF TREX1” (Constellation Pharmaceuticals, Inc., priority 2021, published 2024)

Legend:
full length human TREX1 = target: T1, full length human TREX1 (Homo sapiens, UniProt Q9NSU2); assay: hTREX1 Biochemical Assay (fluorescence, dsDNA substrate degradation); conditions: biochemical, read-out: hTREX1 IC50
T1 construct: N-terminally His-Tev tagged full length human TREX1; made in house; host or cells: E. coli
T1 sequence (Q9NSU2 1-314): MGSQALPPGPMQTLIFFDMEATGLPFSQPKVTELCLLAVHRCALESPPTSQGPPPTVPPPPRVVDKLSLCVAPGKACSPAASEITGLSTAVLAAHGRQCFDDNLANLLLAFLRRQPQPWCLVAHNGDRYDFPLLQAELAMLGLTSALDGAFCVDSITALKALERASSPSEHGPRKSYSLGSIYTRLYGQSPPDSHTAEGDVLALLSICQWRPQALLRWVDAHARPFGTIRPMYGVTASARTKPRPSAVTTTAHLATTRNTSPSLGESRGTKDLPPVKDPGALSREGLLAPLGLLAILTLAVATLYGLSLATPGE
Procedure, shortened: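 Fluorescence rises as enzyme degrades a quenched TEX615-labelled dsDNA substrate (60 nM) in 50 mM Tris, 150 mM NaCl, 5 mM MgCl2, pH 7.4. Full-length His-Tev-tagged human TREX1, 4 pM, sits with compound 4 hours at 25° C before substrate; reaction 18 hours, stopped with EDTA.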

full length mouse TREX1 = target: T2, full length mouse TREX1 (Mus musculus, UniProt Q91XB0); assay: mTREX1 Biochemical Assay (fluorescence, dsDNA substrate degradation); conditions: biochemical, read-out: mTREX1 IC50
T2 construct: N-terminally His-Tev tagged full length mouse TREX1; made in house; host or cells: E. coli
T2 sequence (Q91XB0 1-314): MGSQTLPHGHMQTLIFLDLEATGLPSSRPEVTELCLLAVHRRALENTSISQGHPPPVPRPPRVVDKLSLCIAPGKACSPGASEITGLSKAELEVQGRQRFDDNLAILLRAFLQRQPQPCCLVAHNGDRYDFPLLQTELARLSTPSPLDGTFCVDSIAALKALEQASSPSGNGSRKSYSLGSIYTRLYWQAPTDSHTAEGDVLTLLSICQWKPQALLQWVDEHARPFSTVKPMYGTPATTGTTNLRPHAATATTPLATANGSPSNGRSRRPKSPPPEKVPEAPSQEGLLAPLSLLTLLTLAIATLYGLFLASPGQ
Procedure, shortened: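 Reaction run 18 h at 25° C. with 60 nM TEX615/quencher-labelled dsDNA and 6 pM mouse TREX1 in Tris buffer (pH 7.4, 5 mM MgCl2, 1.0% DMSO), enzyme having sat 4 h with compound across 10 concentrations. EDTA quench; substrate degradation measured as fluorescence increase.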

[1] = target: T3, human TREX2 (residues M44-A279) (Homo sapiens, UniProt Q9BQ50); assay: hTREX2 Biochemical Assay (fluorescence, dsDNA substrate degradation); conditions: biochemical selectivity for hTREX1 vs hTREX2
T3 construct: human TREX2 (residues M44-A279, expressed in E. coli); made in house; host or cells: E. coli
T3 sequence (Q9BQ50 44-279 isoform Q9BQ50-1): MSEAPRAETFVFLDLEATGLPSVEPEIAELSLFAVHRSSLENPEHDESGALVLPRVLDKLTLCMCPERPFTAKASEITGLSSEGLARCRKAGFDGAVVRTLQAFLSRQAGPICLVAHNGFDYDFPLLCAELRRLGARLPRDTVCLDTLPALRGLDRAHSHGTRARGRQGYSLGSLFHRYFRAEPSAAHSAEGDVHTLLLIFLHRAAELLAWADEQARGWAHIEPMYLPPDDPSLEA
Procedure, shortened: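 Fluorogenic dsDNA degradation read at 615 nm (570 nm excitation) after EDTA quench. Final 60 nM substrate, 50 pM His-Tev-tagged enzyme, 5 mM MgCl2, pH 7.4, 1.0% DMSO; 4 h compound–enzyme preincubation then 18 h reaction, both 25 °C; 10-point titration.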

hTREX1 = target: T4, hTREX1 (Homo sapiens, UniProt Q9NSU2); assay: hTREX1 HCT116 Cell Assay (HCT116 dual cells, Lucia luciferase reporter of Type I interferon induction); type: cell-based; conditions: TREX1i 4 h before pBR322/BstNI transfection, read after 48 h
T4 construct: host or cells: HCT116 dual cells
T4 sequence (Q9NSU2 1-314): T1 sequence (Q9NSU2 1-314)
Procedure, shortened: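 Type I interferon induction read as secreted Lucia luciferase 48 h after transfecting pBR322/BstNI digest (1 ug/mL, 100 ng/well) into HCT116 dual reporter cells. Compound added 4 h before transfection at up to 0.1% DMSO; cells in DMEM/10% FBS/25 mM HEPES at 37 °C.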

Row | Compound | IC50 (full length human TREX1) | IC50 (full length mouse TREX1) | hTREX1 vs hTREX2 selectivity [1] | IC50 (hTREX1)
1 | CC(c1nc(C(=O)Nc2cnoc2)c(O)c(=O)n1C)C(c1nnn(C)n1)c1ccccc1C#N (single isomer, unassigned) [Example 79 D1E2] | 1 to 10 nM | > 10 nM | B (B = 25 to 50-fold selective for hTREX1) | > 100 nM
2 | Cc1ccc(C(c2ccccc2C#N)C(C)c2nc(C(=O)Nc3cnoc3)c(O)c(=O)n2C)cn1 (single isomer, unassigned) [Example 5 D1E2] | < 1 nM | < 1 nM | B (B = 25 to 50-fold selective for hTREX1) | < 10 nM
3 | CC(c1nc(C(=O)Nc2cnoc2)c(O)c(=O)n1C)C(c1cnn(C)c1)c1ccc(F)cc1C#N (single isomer, unassigned) [Example 15 D1E1] | < 1 nM | 1 to 10 nM | C (C = >50 fold selective for hTREX1) | < 10 nM
4 | CC(c1nc(C(=O)Nc2cnoc2)c(O)c(=O)n1C)C(c1cnn(C(F)(F)F)c1)c1ccccc1C#N (single isomer, unassigned) [Example 151 D2E1] | 1 to 10 nM | > 10 nM | B (B = 25 to 50-fold selective for hTREX1) | > 100 nM
5 | CC(c1nc(C(=O)Nc2cnoc2)c(O)c(=O)n1C)C(c1cnn(C)c1)c1ccccc1Cl (single isomer, unassigned) [Example 77 D2E1] | > 10 nM | > 10 nM | A (A = <25 fold selective for hTREX1) | > 100 nM
6 | CCn1cc(C(c2ccccc2Cl)C(C)c2nc(C(=O)Nc3cnoc3)c(O)c(=O)n2C)cn1 (single isomer, unassigned) [Example 85 D1E1] | < 1 nM | < 1 nM | B (B = 25 to 50-fold selective for hTREX1) | 10 to 100 nM
7 | CCn1cc(C(c2ccccc2Cl)C(C)c2nc(C(=O)Nc3cnoc3)c(O)c(=O)n2C)cn1 (single isomer, unassigned) [Example 85 D1E2] | 1 to 10 nM | > 10 nM | A (A = <25 fold selective for hTREX1) | > 100 nM
8 | CC(c1nc(C(=O)Nc2cnoc2)c(O)c(=O)n1C)C(c1cnc(C(F)(F)F)cn1)c1ccccc1C#N (single isomer, unassigned) [Example 118 D2E1] | 1 to 10 nM | > 10 nM | B (B = 25 to 50-fold selective for hTREX1) | > 100 nM
9 | CC(c1nc(C(=O)Nc2cnoc2)c(O)c(=O)n1C)C(c1cnn(CCN2CCOCC2)c1)c1ccccc1C#N (single isomer, unassigned) [Example 20 D1E1] | < 1 nM | 1 to 10 nM | C (C = >50 fold selective for hTREX1) | 10 to 100 nM
10 | CC(c1nc(C(=O)Nc2cnoc2)c(O)c(=O)n1C)C(c1cnn(CCN(C)C)c1)c1ccccc1C#N (single isomer, unassigned) [Example 33 D1E1] | 1 to 10 nM | 1 to 10 nM | C (C = >50 fold selective for hTREX1) | > 100 nM
11 | Cc1cc(C)n(C(c2ccccc2Cl)C(C)c2nc(C(=O)Nc3cnoc3)c(O)c(=O)n2C)n1 (single isomer, unassigned) [Example 136 D1E2] | < 1 nM | > 10 nM | B (B = 25 to 50-fold selective for hTREX1) | 10 to 100 nM
12 | COC(C)(C)Cn1cc(C(c2cc(F)ccc2Cl)C(C)c2nc(C(=O)Nc3cnoc3)c(O)c(=O)n2C)cn1 (single isomer, unassigned) [Example 93 D1E1] | 1 to 10 nM | 1 to 10 nM | B (B = 25 to 50-fold selective for hTREX1) | 10 to 100 nM
13 | Cc1nn(C)cc1C(c1cc(F)ccc1C#N)C(C)c1nc(C(=O)Nc2cnoc2)c(O)c(=O)n1C (single isomer, unassigned) [Example 57 D1E1] | 1 to 10 nM | > 10 nM | C (C = >50 fold selective for hTREX1) | 10 to 100 nM
14 | CC(c1nc(C(=O)Nc2cnoc2)c(O)c(=O)n1C)C(c1ccccc1Cl)n1cccn1 (single isomer, unassigned) [Example 45 D1E1] | 1 to 10 nM | > 10 nM | B (B = 25 to 50-fold selective for hTREX1) | > 100 nM
15 | CC(c1nc(C(=O)Nc2cnoc2)c(O)c(=O)n1C)C(c1cnn(C)c1)c1ccccc1Cl (single isomer, unassigned) [Example 77 D1E2] | > 10 nM | > 10 nM | A (A = <25 fold selective for hTREX1) | > 100 nM

Now from value to compound:

Row | IC50 (full length human TREX1) | IC50 (full length mouse TREX1) | hTREX1 vs hTREX2 selectivity [1] | IC50 (hTREX1) | Compound
16 | > 10 nM | > 10 nM | A (A = <25 fold selective for hTREX1) | > 100 nM | Cc1cnc(C(c2ccccc2Cl)C(C)c2nc(C(=O)Nc3cnoc3)c(O)c(=O)n2C)cn1 (single isomer, unassigned) [Example 116 D1E1]
17 | > 10 nM | > 10 nM | A (A = <25 fold selective for hTREX1) | > 100 nM | Cc1n[nH]c(C)c1C(c1ccccc1C#N)C(C)c1nc(C(=O)Nc2cnoc2)c(O)c(=O)n1C (single isomer, unassigned) [Example 95 D1E2]
18 | < 1 nM | 1 to 10 nM | C (C = >50 fold selective for hTREX1) | < 10 nM | Cc1cnc(C)c(C(c2ccccc2Cl)C(C)c2nc(C(=O)Nc3cnoc3)c(O)c(=O)n2C)n1 (single isomer, unassigned) [Example 120 D1E1]
19 | < 1 nM | 1 to 10 nM | C (C = >50 fold selective for hTREX1) | 10 to 100 nM | CC(c1nc(C(=O)Nc2cnoc2)c(O)c(=O)n1C)C(c1cnn(CCOC(F)(F)F)c1)c1cc(F)ccc1C#N (single isomer, unassigned) [Example 101 D1E2]
20 | < 1 nM | > 10 nM | C (C = >50 fold selective for hTREX1) | > 100 nM | Cc1cc(C(c2cc(F)ccc2C#N)C(C)c2nc(C(=O)Nc3cnoc3)c(O)c(=O)n2C)n(C)n1 (single isomer, unassigned) [Example 111 D2E1]
21 | 1 to 10 nM | > 10 nM | A (A = <25 fold selective for hTREX1) | > 100 nM | CC(c1nc(C(=O)Nc2cnoc2)c(O)c(=O)n1C)C(c1cnn(CC(C)(C)C#N)c1)c1cc(F)ccc1Cl (single isomer, unassigned) [Example 99 D1E1]
22 | 1 to 10 nM | 1 to 10 nM | C (C = >50 fold selective for hTREX1) | > 100 nM | CC(c1nc(C(=O)Nc2cnoc2)c(O)c(=O)n1C)C(c1ccccc1)c1cccnc1C#N (single isomer, unassigned) [Example 155 D1E2]
23 | > 10 nM | > 10 nM | A (A = <25 fold selective for hTREX1) | > 100 nM | CC(c1nc(C(=O)Nc2cnoc2)c(O)c(=O)n1C)C(c1ccccc1C#N)c1cn(C)nc1F (single isomer, unassigned) [Example 91 D1E2]
24 | > 10 nM | > 10 nM | A (A = <25 fold selective for hTREX1) | > 100 nM | COCCn1cc(C(c2cc(F)ccc2C#N)C(C)c2nc(C(=O)Nc3cnoc3)c(O)c(=O)n2C)c(C)n1 (single isomer, unassigned) [Example 103 D1E1]
